Measurements taken from patent US11247990B1, “Bicyclic fused pyridine compounds as inhibitors of TAM kinases” (ARRAY BIOPHARMA INC., priority 2017, dated 2022).

Assays:
Details in all cases: averaged IC50
[1] = biological target: His-tagged recombinant human AXL cytoplasmic domain (Homo sapiens (Human), UniProt P30530); assay: AXL Enzyme Assay (LanthaScreen Eu Kinase Binding, TR-FRET)
Method in brief: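 LanthaScreen Eu kinase binding format, incubated 60 min at 22 °C and read by TR-FRET dual-wavelength emission ratio as percent of control. IC50 taken where a 4-parameter logistic fit crosses 50 POC.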

[2] = biological target: His-tagged recombinant human MER cytoplasmic domain (Homo sapiens (Human), UniProt Q12866); assay: MER Enzyme Assay (LanthaScreen Eu Kinase Binding, TR-FRET)
Method in brief: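 LanthaScreen Eu kinase binding (tracer displacement) assay with His-tagged human MER cytoplasmic domain, 60 min incubation at 22 °C. TR-FRET dual-wavelength emission ratio converted to percent of control; IC50 is where the 4-parameter logistic fit crosses 50 POC.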

[3] = biological target: GST-tagged recombinant human TYRO3 kinase domain (Homo sapiens (Human), UniProt Q06418); assay: TYRO3 Enzyme Assay (LanthaScreen Eu Kinase Binding, TR-FRET)
Method in brief: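 LanthaScreen Eu binding (tracer displacement) format read by TR-FRET after 60 min at 22 °C. Emission ratio converted to percent of control; IC50 taken where a 4-parameter logistic fit crosses 50 POC.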

His-tagged recombinant human AXL cytoplasmic domain, sequence (P30530 473-894): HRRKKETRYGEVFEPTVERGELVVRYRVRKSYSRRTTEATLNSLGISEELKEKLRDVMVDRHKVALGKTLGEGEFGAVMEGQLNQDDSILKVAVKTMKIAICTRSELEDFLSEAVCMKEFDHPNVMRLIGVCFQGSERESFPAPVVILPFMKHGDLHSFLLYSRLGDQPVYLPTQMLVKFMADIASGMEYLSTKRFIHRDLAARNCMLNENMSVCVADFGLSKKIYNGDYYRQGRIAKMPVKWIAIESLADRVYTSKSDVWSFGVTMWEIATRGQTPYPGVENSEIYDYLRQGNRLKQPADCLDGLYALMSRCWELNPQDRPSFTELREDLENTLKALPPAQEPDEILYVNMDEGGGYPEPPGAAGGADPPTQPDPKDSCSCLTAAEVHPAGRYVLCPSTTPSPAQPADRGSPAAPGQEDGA
His-tagged recombinant human MER cytoplasmic domain, sequence (Q12866 527-999): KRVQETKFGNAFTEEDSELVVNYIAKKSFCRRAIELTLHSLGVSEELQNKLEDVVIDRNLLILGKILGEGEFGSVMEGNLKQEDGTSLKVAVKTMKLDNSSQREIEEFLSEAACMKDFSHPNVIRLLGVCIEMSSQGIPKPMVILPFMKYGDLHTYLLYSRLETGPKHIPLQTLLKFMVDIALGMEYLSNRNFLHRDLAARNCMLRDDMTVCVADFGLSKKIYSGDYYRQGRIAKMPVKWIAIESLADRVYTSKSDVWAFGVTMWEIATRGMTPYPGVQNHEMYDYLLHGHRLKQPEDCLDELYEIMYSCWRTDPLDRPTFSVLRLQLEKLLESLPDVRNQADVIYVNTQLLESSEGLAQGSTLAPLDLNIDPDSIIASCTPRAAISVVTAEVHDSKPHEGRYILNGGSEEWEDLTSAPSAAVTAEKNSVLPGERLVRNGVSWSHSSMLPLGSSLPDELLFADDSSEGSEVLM
GST-tagged recombinant human TYRO3 kinase domain, sequence (Q06418 518-790): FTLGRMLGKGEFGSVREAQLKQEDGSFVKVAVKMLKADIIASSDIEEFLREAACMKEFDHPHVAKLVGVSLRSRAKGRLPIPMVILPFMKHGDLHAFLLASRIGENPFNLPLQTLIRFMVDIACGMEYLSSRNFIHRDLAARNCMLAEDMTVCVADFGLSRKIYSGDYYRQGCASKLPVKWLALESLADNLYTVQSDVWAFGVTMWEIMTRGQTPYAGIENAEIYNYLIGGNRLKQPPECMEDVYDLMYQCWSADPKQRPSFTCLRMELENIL

IC50 [1] [nM]	IC50 [2] [nM]	IC50 [3] [nM]	Structure (SMILES)
< 10	< 10	< 10	CCNc1cc2c(cn1)c(-c1ccc3c(c1)CN(C)C3=O)nn2[C@H]1CC[C@@H](Oc2cn(C)nc2C(F)(F)F)CC1 [Example 288, 5-(6-(ethylamino)-1-((1s,4s)-4((1-methyl-3-(trifluoromethyl)-1H-pyrazol-4-yl)oxy)cyclohexyl)-1H-pyrazolo[4,3-c]pyridin-3-yl)-2-methylisoindolin-1-one]
< 10	< 10	10 to 100	CNc1cc2c(cn1)c(-c1ccc(CN3CCN(C)CC3)cc1)nn2[C@H]1CC[C@@H](Oc2cnn(C)c2C(F)(F)F)CC1 [Example 264, N-methyl-1-((1s,4s)-4-((1-methyl-5-(trifluoromethyl)-1H-pyrazol-4-yl)oxy)cyclohexyl)-3-(4-((4-methylpiperazin-1-yl)methyl)phenyl)-1H-pyrazolo[4,3-c]pyridin-6-amine]
< 10	< 10	< 10	CCNc1cc2c(cn1)c(-c1cnn(C(C)(C)C#N)c1)nn2[C@H]1CC[C@@H](Oc2cn(C)nc2C(F)(F)F)CC1 [Example 280, 2-(4-(6-(ethylamino)-1-((1s,4s)-4-((1-methyl-3-(trifluoromethyl)-1H-pyrazol-4-yl)oxy)cyclohexyl)-1H-pyrazolo[4,3-c]pyridin-3-yl)-1H-pyrazol-1-yl)-2-methylpropanenitrile]
< 10	< 10	10 to 100	CCNc1cc2c(cn1)c(-c1cnn(CC(C)(O)CO)c1)nn2[C@H]1CC[C@@H](Oc2ccccc2F)CC1 (stereo partly drawn) [Example 431, 3-(4-(6-(ethylamino)-1-((1s,4s)-4-(2-fluorophenoxy)cyclohexyl)-1H-pyrazolo[4,3-c]pyridin 3-yl)-1H-pyrazol-1-yl)-2-methylpropane-1,2-diol]
